Our source for the bioavailability and Cp values is ChEMBL document CHEMBL3797111, “Substituted Indazoles as Nav1.7 Blockers for the Treatment of Pain” (J Med Chem, 2016).

Format in all cases: ADME, organism-based
Conditions in all cases: in vivo

Series [1] is described as follows: Bioavailability in Sprague-Dawley rat by HPLC-MS/MS analysis.
Series [2] deals with Plasma. Description: Plasma concentration in monoiodoacetate-induced osteoarthritis rat model at 3 mg/kg, po.
The test system of series [3] is Plasma. The series is described as follows: Plasma concentration in monoiodoacetate-induced osteoarthritis rat model at 30 mg/kg, po.
Series [4] concerns Plasma. The series is described as follows: Plasma concentration in monoiodoacetate-induced osteoarthritis rat model at 10 mg/kg, po.

By bioavailability is commonly meant dose-corrected exposure relative to a reference, in per cent. Lower therefore signals little systemic uptake. As to `O=C1CN(c2cccc3c2cnn3-c2ccccc2F)CCN1CC(=O)N1CC[C@H](F)C1`, the bioavailability in series [1] came out at 84%.
On the same count and under the same terms, as for `O=C1NCCN1CCOc1nn(-c2ccc(F)cc2F)c2ccc(F)cc12`, the figure is 71%; as for `O=c1[nH]ccn1CCOc1nn(-c2ccccc2F)c2ccc(F)cc12`, 35%.
On the same count and under the same terms, as for `CC(Oc1nn(-c2ccccc2F)c2ccc(F)cc12)C(=O)N1CCOCC1` (configuration not stated), the figure is 27%.
The same measure, in the same setting: as for `CC(C)CC(=O)CN1CCN(c2cccc3c2cnn3-c2ccccc2F)C1=O`, the figure is 82%.
`O=C(CN1CCN(c2cccc3c2cnn3-c2ccccc2F)C1=O)N1CC[C@H](F)C1`: the values for the Cp in series [2], in series [3] and in series [4] were 2.7 µg/mL, 10.5 µg/mL and 6.8 µg/mL, respectively. This molecule also returned a bioavailability in series [1] of 83%.
On the same counts, the results for `O=C1NCCN1CCOc1nn(-c2ccccc2F)c2ccc(F)cc12` are 0.05 µg/mL, 1.05 µg/mL, 0.38 µg/mL and 17%.
With `O=C1NCCN1CCOc1nn(-c2ccc(F)cc2)c2ccc(F)cc12`, the bioavailability in series [1] was 54%.
As to `O=C(CN1CCN(c2cccc3c2cnn3-c2ccccc2F)C1=O)N1CCCC1`, the bioavailability in series [1] amounted to 94%.
The same measure, in the same setting: to `O=C(COc1nn(-c2ccccc2F)c2ccc(F)cc12)N1CCOCC1` belongs 22%.
With `Fc1ccc2c(c1)c(OCCn1ccnc1)nn2-c1ccccc1F`, the bioavailability in series [1] is 28%.
